Where two headings read alike, the source gives them in different places.
Legend:
hSERT = molecular target: T1, hSERT (Homo sapiens, UniProt P31645); experiment: hSERT screening assay: inhibition of uptake of the fluorescent substrate APP+ in stably transfected hSERT-HEK cells; assay type: cell-based; conditions: for IC50: hSERT-HEK cells, APP+ 1.1 µM, mean ± SEM, n ≥ 4, read-out: SERT IC50
T1 construct: expressed in transfected cells; host or cells: HEK cells, stably transfected (hSERT-HEK), kept under G418
Method: (§1) Stably transfected hSERT-HEK and rVMAT2-HEK cellular cultures were maintained in Dulbecco’s Minimal Essential Medium (DMEM) with GlutaMAX (Gibco) with the following additions: 10% (v/v) Fetal Bovine Serum (FBS, Atlanta Biologicals), 100 U/mL Penicillin, and 10 µg/mL Streptomycin (Gibco). With regards to the former cell lineage, an additional ingredient, 500 µg/mLGeneticin (G418) (Sigma) was included to preserve the respective transgene.
(§2) For both hSERT and rVMAT2 screening experiments, respective singly transfected cells were seeded at a density of 0.09 × 10^6 cells/well in poly-D-Lysine (Sigma) coated white solid-bottom 96-well plates. Growth was permitted for approximately 44 hours in said aqueous media and at an incubation environment of 37° C. and 5% Carbon Dioxide. At the beginning of the experiment, the cellular growth solution was aspirated, and individual cells were rinsed with 150 µL of 1× Dulbecco’s Phosphate Buffered Saline (PBS; HyClone). 63 µL of Experimental Media (consisting of the following contents: DMEM without phenol red but with 4.5 g/L of D-Glucose (Gibco), 1 % (v/v) FBS (Atlanta Biologicals), 100 U/mL Penicillin, and 10 µg/mLStreptomycin (Gibco)) with 2 × tiered concentrations of inhibitor (or DMSO, the vehicle of these experiments) were added to the respective wells. […] After a required incubation period of 30 minutes for proper fluorescent probe uptake, the contents of each well were aspirated and consequently, rinsed twice with 120 µL of PBS. A final solution of 120 µL of PBS is finally added to all corresponding wells for cell maintenance before undergoing fluorescence uptake reading by a BioTek H1MF plate reader.
(§3) Numerical analysis of the collected experimental data preceded as accordingly. Respective inhibitor values were first subtracted from vehicular values to quantify the respective fluorescence uptake. This metric was then analyzed using the dose-response-inhibitor nonlinear curve fitting model ([inhibitor] vs response (three parameters)) as supplied by GraphPad Prism 6 software. For each inhibitor, the model supplied a respective IC50 ± SEM value (Table 1).

rVMAT2 = molecular target: T2, rVMAT2 (Rattus norvegicus, UniProt Q01827); experiment: rVMAT2 screening assay: inhibition of uptake of the fluorescent substrate FFN206 in stably transfected rVMAT2-HEK cells; assay type: cell-based; conditions: for IC50: rVMAT2-HEK cells, FFN206 0.75 µM, mean ± SEM, n ≥ 4, read-out: VMAT2 IC50; for Ki: read-out: VMAT2 Ki
T2 construct: expressed in transfected cells; host or cells: HEK cells, stably transfected (rVMAT2-HEK)
Method: as §1, §2, §3

[1] = Metabolic stability and noribogaine formation in human liver microsomes (HLM), LC-MS/MS; conditions: for percent remaining of parent compound: 10 µM, + NADPH
Method: (§4) Metabolism Studies. Metabolic stability of test compounds was evaluated in liver microsomes from rat (RLM) and human (HLM). This was accomplished by incubating test compounds with microsomes and monitoring disappearance of parent compound as well as metabolite formation over time using LC-MS/MS in Multiple Reaction Monitoring mode (MRM).
(§5) Stock solutions of test compounds were prepared in DMSO at a concentration of 10 mM.
(§6) From the above mix, 70 µL was added to individual wells of 96 well reaction plates and preincubated at 37° C. for 5 min. […] Reactions without NADPH and buffer controls (minus NADPH) at 0 min and 60 min were also incubated to rule out non-NADPH metabolism or chemical instability in the incubation buffer. All reactions were terminated using 100 µL of ice-cold acetonitrile containing internal standard (glipizide) at 0, 5, 15, 30 and 60 min.
(§7) Samples were monitored for parent compounds disappearance and formation of metabolite in MRM mode using LC-MS/MS instrument (API-4000 with Waters UPLC).
(§8) The percent remaining of test compounds and positive control in each sample was determined by considering peak area ratio in the 0 minute sample as 100%. The Half-life of compounds in microsomes is calculated by formula: […]
(§9) In vitro intrinsic clearance (CL´int) (units in mL/min/kg) was calculated using the formula: […]
(§10) * Indicates liver weight (gm) which varies species wise. For human, monkey, dog, rat and mouse the liver weight are 20 gm, 32 gm, 32 gm, 40 gm and 90 gm respectively.

[2] = Metabolic stability and noribogaine formation in rat liver microsomes (RLM), LC-MS/MS; conditions: for percent remaining of parent compound: 10 µM, + NADPH
Method: as §4, §5, §6, §7, §8, §9, §10

[3] = ratio of potency to noribogaine

T1 sequence (P31645 whole entry): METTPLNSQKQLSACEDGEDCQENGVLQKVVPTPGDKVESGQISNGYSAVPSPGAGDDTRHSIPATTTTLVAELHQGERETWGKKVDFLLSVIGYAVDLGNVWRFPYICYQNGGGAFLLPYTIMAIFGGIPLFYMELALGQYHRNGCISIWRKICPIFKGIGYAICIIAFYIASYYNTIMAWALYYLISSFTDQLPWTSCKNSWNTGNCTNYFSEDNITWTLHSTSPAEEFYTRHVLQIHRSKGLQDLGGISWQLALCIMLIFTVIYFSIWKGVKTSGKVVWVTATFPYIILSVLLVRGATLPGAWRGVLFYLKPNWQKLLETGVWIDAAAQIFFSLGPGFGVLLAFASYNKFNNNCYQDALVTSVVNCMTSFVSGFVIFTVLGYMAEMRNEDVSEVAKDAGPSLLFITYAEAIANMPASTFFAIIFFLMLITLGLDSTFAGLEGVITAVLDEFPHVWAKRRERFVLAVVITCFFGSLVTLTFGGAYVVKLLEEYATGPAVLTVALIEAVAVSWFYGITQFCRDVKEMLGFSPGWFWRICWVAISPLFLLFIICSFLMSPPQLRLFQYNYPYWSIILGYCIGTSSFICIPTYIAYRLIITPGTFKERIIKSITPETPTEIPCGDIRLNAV
T2 sequence (Q01827 whole entry): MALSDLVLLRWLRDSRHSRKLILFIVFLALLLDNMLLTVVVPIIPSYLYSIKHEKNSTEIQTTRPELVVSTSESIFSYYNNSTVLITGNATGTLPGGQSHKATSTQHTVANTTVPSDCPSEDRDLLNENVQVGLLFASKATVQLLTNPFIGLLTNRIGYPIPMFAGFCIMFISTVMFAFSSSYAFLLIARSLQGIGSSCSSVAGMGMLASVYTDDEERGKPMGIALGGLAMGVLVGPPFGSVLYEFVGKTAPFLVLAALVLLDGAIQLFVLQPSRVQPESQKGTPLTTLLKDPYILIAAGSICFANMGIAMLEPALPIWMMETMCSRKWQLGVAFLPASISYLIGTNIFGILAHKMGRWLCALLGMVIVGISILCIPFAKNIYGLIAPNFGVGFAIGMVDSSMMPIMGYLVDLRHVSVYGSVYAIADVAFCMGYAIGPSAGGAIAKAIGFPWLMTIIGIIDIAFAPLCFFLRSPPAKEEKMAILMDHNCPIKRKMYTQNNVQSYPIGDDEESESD

CCC1CC2CC3c4[nH]c5ccc(OC)c(Br)c5c4CCN(C2)C13 (stereo not drawn) [Compound 17, 9-Bromo-ibogaine]
Ki (hSERT; Cheng-Prusoff from IC50, Km (APP+) = 1.6 µM, read-out: SERT Ki): 400 ± 90 nM
IC50 (hSERT): 670 ± 160 nM
times less potent than noribogaine at SERT (hSERT; [3]): approximately 2.4
IC50 (rVMAT2): 4900 ± 870 nM
times weaker than noribogaine at VMAT2 (rVMAT2; [3]): ~8.6
Ki (rVMAT2): 3000 ± 530 nM

CCC1CC2CC3c4[nH]c5ccc(C(N)=O)cc5c4CCN(C2)C13 (stereo not drawn) [Compound 2, Ibogamine-10-carboxamide]
IC50 (hSERT): 2500 ± 290 nM
IC50 (rVMAT2): 3000 ± 570 nM

CCCOc1ccc2[nH]c3c(c2c1)CCN1CC2CC(CC)C1C3C2 (stereo not drawn) [Compound 4, 10-Propoxy-ibogamine]
IC50 (hSERT): 3000 ± 500 nM

CCC1CC2CC3c4c(c5cc(O)ccc5n4CC)CCN(C2)C13 (stereo not drawn) [Compound 13, N-ethyl-noribogaine]
IC50 (hSERT): 1900 ± 200 nM
IC50 (rVMAT2): 70 ± 10 nM

CCC1CC2CC3c4[nH]c5ccc(C#N)cc5c4CCN(C2)C13 (stereo not drawn) [Compound 3, Ibogamine-10-carbonitrile]
IC50 (hSERT): 26 ± 3.8 nM
IC50 (rVMAT2): 3300 ± 430 nM

CCC1CC2CC3c4[nH]c5ccc(OC)c(Cl)c5c4CCN(C2)C13 (stereo not drawn) [Compound 19, 9-Chloro-ibogaine]
IC50 (hSERT): 1200 ± 120 nM
IC50 (rVMAT2): 18000 ± 5900 nM

CCOc1ccc2[nH]c3c(c2c1)CCN1CC2CC(CC)C1C3C2 (stereo not drawn) [10-Ethoxy-ibogamine]
percent remaining of parent compound ([1]; HLM, 0 min): 100%
CLh,int ([1]; HLM, 45 mg microsomal protein per gm liver): 13 mL/min/kg
percent remaining of parent compound ([1]; HLM, 5 min): 103%
percent remaining of parent compound ([1]; HLM, 15 min): 98%
percent remaining of parent compound ([1]; HLM, 30 min): 85%
percent remaining of parent compound ([1]; HLM, 60 min): 66%
% Remaining at 60 min (+ NADPH) ([1]; HLM, summary line): 66%
% Remaining at 60 min (- NADPH) ([1]; HLM, without NADPH): 106%
%Remaining at 60 min (Buffer) ([1]; buffer control, HLM column): 88%
half-life at 10 µM ([1]; human, microsomes, pH 7.4): > 60 min
percent remaining of parent compound ([2]; RLM, 0 min): 100%
CLh,int ([2]; RLM, 45 mg microsomal protein per gm liver): 445 mL/min/kg
percent remaining of parent compound ([2]; RLM, 5 min): 77%
percent remaining of parent compound ([2]; RLM, 15 min): 42%
percent remaining of parent compound ([2]; RLM, 30 min): 3%
percent remaining of parent compound ([2]; RLM, 60 min): 0%
% Remaining at 60 min (+ NADPH) ([2]; RLM, summary line): 0%
% Remaining at 60 min (- NADPH) ([2]; RLM, without NADPH): 88%
%Remaining at 60 min (Buffer) ([2]; buffer control, RLM column): 88%
half-life at 10 µM ([2]; male, rat, microsomes, pH 7.4): 6 min
SERT inhibition, result in words (hSERT): only a weak inhibitor of SERT
IC50 (hSERT): 9000 ± 1100 nM
VMAT2 inhibition, result in words (rVMAT2): potent VMAT2 inhibitor
VMAT2 inhibition, result in words (rVMAT2; listed as 10-Ethoxy-ibogaine): nearly an order of magnitude more potent
IC50 (rVMAT2): 80 ± 20 nM
Ki (rVMAT2): 50 ± 10 nM

CC[C@H]1C[C@H]2C[C@H]3c4[nH]c5ccc(O)cc5c4CCN(C2)[C@@H]13 [Noribogaine, reference compound]
SERT inhibition, result in words (hSERT): potent SERT inhibitor
Ki (rVMAT2; Cheng-Prusoff from IC50, Km (FFN206) = […]): 350 ± 40 nM
IC50 (rVMAT2): 570 ± 80 nM

CCOc1ccc2c(c1)c1c(n2C)C2CC3CC(CC)C2N(CC1)C3 (stereo not drawn) [Compound 14, N-methyl-10-ethoxy-ibogamine]
IC50 (hSERT): 2800 ± 380 nM

Reference: patent US20230348465A1, “IBOGAINE ANALOGS AS THERAPEUTICS FOR NEUROLOGICAL AND PSYCHIATRIC DISORDERS” (The Trustees of Columbia University in the City of New York, priority 2020, published 2023)
